Results reported in patent US20260325655A1, “DECREASING THE INTRINSICALLY DISORDERED PROTEIN ALPHA-SYNUCLEIN’S LEVELS BY TARGETING ITS STRUCTURED MRNA WITH A RIBONUCLEASE TARGETING CHIMERA” (University of Florida Research Foundation, Incorporated, priority 2023, published 2026).

Legend:
Assay type in all cases: cell-based, human
SNCA mRNA [1] = test: competition of Synucleozid-2.0 with Syn-RiboTAC in SH-SY5Y cells; conditions: Synucleozid-2.0 0.1-10 μM; Syn-RiboTAC constant 2 μM
Experimental: Syn-RiboTAC's activity is RNase L-dependent. To validate mode of action, RNase L was knocked down in SH-SY5Y cells with a pool of siRNAs (FIG. 5C), followed by treatment with Syn-RiboTAC. […] Syn-RiboTAC and Synucleozid-2.0 were validated to engage the same binding site in cells by a competition experiment using a constant concentration of Syn-RiboTAC(2 μM) and varying concentrations of Synucleozid-2.0 (0.1-10 μM).
(§1) RNA extraction and reverse transcription-quantitative polymerase chain reaction (RT-qPCR). Total RNA was extracted from cells using a Quick-RNA MiniPrep Kit (Zymo Research) per the manufacturer's protocol including DNase treatment. For each sample, 200 ng of RNA was reverse transcribed into cDNA by using a qScript cDNA Synthesis Kit (QuantaBio) according to the manufacturer's instructions. To assess the relative mRNA levels, RT-qPCR was performed in triplicate using SYBR Green PCR mater mix (Applied Biosystems) with a Quant Studio 5 Real-Time PCR system. The relative levels of mRNA were calculated by using the ΔΔCt method as previously described.^8

[2] = tested on: SNCA IRE-luciferase reporter; test: wash-out experiment using the luciferase reporter assay; conditions: 16 h after compound removal; 2 μM
Source text: (§2) Plasmid constructs and establishment of reporter gene overexpressing cells. Construction of pIRES-Luc-EGFP-puro plasmid and pCDH-α-syn-5′-UTR-Luc-EGFP-puro plasmid used in 5′ UTR-luciferase-based selectivity assay were previously described.^4 Briefly, In-Fusion PCR cloning system (Takara Bio, Mountain View, CA, USA) was used for all plasmid constructions per the manufacturer's instructions. To ensure sequence accuracy, all plasmids generated in this study were confirmed by sequencing.
Luciferase assay. The effect of compounds on translation of SNCA IRE-containing transcript was measured by using a luciferase reporter assay. HeLa cells (~60% confluency) were transfected with plasmids (2 μg per 60 mm dish) by using JetPrime (Polyplus Transfection) according to the manufacturer's recommended procedures. Approximately 16 h after transfection, the transfection cocktail was removed, and the cells were trypsinized and seeded to 96-well plates (8,000 cells per well). After 6 h, cells were treated as described in Cell Culture. To measure the luciferase signals, the cells were then washed with 1× DPBS, and luciferase activity in each well was measured by using the ONE-Glo Luciferase Assay System (Promega) per the manufacturer's instructions. Luminescence from firefly luciferase reaction was measured using a Biomek FLx800 plate reader.

ferritin mRNA = ferritin mRNA in SH-SY5Y cells by RT-qPCR
Experimental: as §1

ferritin = ferritin protein in SH-SY5Y cells by Western blot
Experimental: (§3) Western blotting. After 48 h, cells were gently washed with ice-cold 1× DPBS, and total protein was extracted with Mammalian Protein Extraction Reagent (M-PER, Thermo Scientific) per the manufacturer's protocol. After quantifying protein concentration by using BCA Protein Assay Kit (Pierce Biotechnology), ~30 μg of total protein for each sample was separated using a 10% SDS-polyacrylamide gel and transferred onto a PVDF membrane. The membrane was fixed with 0.4% paraformaldehyde (pH=7.0) for 30 min at room temperature^9 and then blocked with 5% (w/v) non-fat dry milk in 1× TBST (1× TBS containing 0.1% Tween-20) for 1 h at room temperature. […] After washing 10 min each with 1× TBST three times, immunocomplex signals of each protein were detected by using a SuperSignal West Pico Chemiluminescent Substrate (Pierce Biotechnology) according to the manufacturer's protocol. The memebrane was then stripped by using 1× Stripping Buffer (200 mM glycine, pH 2.2, 4 mM SDS, 1% (v/v) Tween 20) at room temperature for 15 min, followed by blocking with 5% (w/v) non-fat dry milk at room temperature for 1 h. β-actin was used to normalize the levels of all proteins, measured by incubating with a primary antibody for β-actin (1:5000, 3700S from Cell Signaling Technology) at 4° C. overnight. […]

TfR mRNA = TfR mRNA in SH-SY5Y cells by RT-qPCR
Experimental: as §1

SNCA mRNA [3] = test: SNCA mRNA cleavage after siRNA knock-down of RNase L in SH-SY5Y cells
Experimental: as §1
Transfection of siRNAs. The siRNAs were purchased from commercial sources as listed in General information. The α-synuclein siRNA (final concentration of 200 nM) or RNase L siRNA (final concentration of 50 nM) were transfected into SH-SY5Y cells (at ~60% confluency in 12-well plates) by using the Lipofectamine RNAiMax (Life technologies) per manufacturer's protocol.

APP = APP protein in SH-SY5Y cells by Western blot
Experimental: as §3

[4] = tested on: SNCA IRE-luciferase transcript; test: SNCA IRE-luciferase transcript abundance by RT-qPCR; conditions: Homo sapiens, 2 μM, read-out: reduction of SNCA IRE-luciferase transcript levels
Experimental: as §1, §2

HHIPL1 = HHIPL1 protein in SH-SY5Y cells by Western blot; conditions: 2 μM, 48 h
Experimental: as §3

MYO15B = MYO15B protein in SH-SY5Y cells by Western blot; conditions: 2 μM, 48 h
Experimental: as §3

TfR = TfR protein in SH-SY5Y cells by Western blot
Experimental: as §3

| SMILES | SNCA mRNA levels in competition experiment (SNCA mRNA [1]) | activity after wash-out (in words) [2] | effect on ferritin mRNA level (ferritin mRNA) | effect on ferritin protein level (ferritin) | effect on TfR mRNA level (TfR mRNA) | effect of scrambled control siRNA on Syn-RiboTAC activity (SNCA mRNA [3]; scrambled control siRNA) | effect on SNCA mRNA after RNase L knock-down (SNCA mRNA [3]; siRNA pool against RNase L) | effect on APP protein level (APP) | inhibition at 2 µM [4] | reduction of HHIPL1 protein level (HHIPL1) | reduction of MYO15B protein level (MYO15B) | effect on TfR protein level (TfR) |
| --- | --- | --- | --- | --- | --- | --- | --- | --- | --- | --- | --- | --- |
| O=C(CSc1nnc(-c2ccncc2)n1-c1ccc(Br)cc1)Nc1ccc2cn[nH]c2c1 [Synucleozid-2.0] | dose-dependent restoration of SNCA mRNA levels | inactive | – | – | – | – | – | – | – | – | – | – |
| CCOC(=O)C1=C(Nc2ccccc2)S/C(=C\c2ccc(OCCOCCOCCOCCNC(=O)CCCOc3ccc(-n4c(SCC(=O)Nc5ccc6cn[nH]c6c5)nnc4-c4ccncc4)cc3)c(O)c2)C1=O [Syn-RiboTAC] | – | – | None of the three transcripts was affected | no effect | None of the three transcripts was affected | No significant effect on activity | ablated the effect of Syn-RiboTAC on SNCA mRNA | no effect | ~50% | ~ 20% | ~ 20% | no effect |
